Reference: patent publication US20220048987A1, “METHOD OF TREATMENT TO PREVENT OR REVERSE AGE-ASSOCIATED INFLAMMATION, COGNITIVE DECLINE, AND NEURODEGENERATION” (The Board of Trustees of the Leland Stanford Junior …, priority 2020, published 2022)

Tests used:
aged mice = experiment: Spatial memory: Novel Object Location and Barnes Maze tasks; type: in vivo, mouse; conditions: aged (20-22 mo) mice, 2.5 mg/kg/d, 6 weeks
Description: The Novel Object Location protocol was adopted from Wimmer et al. with minor modifications. Mice interacted with the chamber (a 16 in×16 in×15 in white box made from PVC) over the course of 2 days involving 1 habituation period, 3 training sessions, and 1 testing session. On the day of training (day 1) mice were placed in the middle of an empty chamber and given 5 minutes to explore the chamber. Mice were then placed in an independent holding cage for an inter-training interval (ITI) of 3 minutes. The objects used were a plastic bottle and seasoning shaker of similar size (3 in H×1 in W×1 in L). After the habituation session, the mice then underwent three 10-minute training sessions each with a 3 min ITI in between sessions. […] Animals were recorded a JVC Everio HD camcorder GZE200 and analyzed with Kinovea video tracking software. Exploration of the objects was defined as the amount of time mice were oriented toward an object with its nose within 1 cm of it, and was scored by an experimenter blind to experimental group. […]
After testing each mouse, the maze was cleaned with 70% ethanol and rotated clockwise after every mouse to avoid intra-maze odor or visual cues. All sessions were recorded using a JVC Everio HD camcorder GZ-E200 and analyzed with Kinovea video tracking software. […]

[1] = tested on: human monocyte-derived macrophages (human MDMs); experiment: Real-time oxygen consumption rate (OCR) and ECAR (Seahorse) in human MDMs; type: cell-based; conditions: human MDMs, dose response, 20 h
Description: Cells were plated at 1.8×10^6 cells per well in a Seahorse XF24 Cell Culture Microplate (Agilent). Cells were then treated with indicated inhibitors or agonists in each experiment for 20 h. Cells were washed twice with Agilent Seahorse XF Media (Agilent) supplemented with 1 mM pyruvate, 2 mM L-glutamine, and 10 mM D-glucose; a final volume of 525 μl was placed in each well. Cells were then incubated in a 0% CO2 chamber at 37° C. for 1 h before being placed into a Seahorse XFe24 Analyzer (Agilent). For OCR and ECAR mitostress test experiments, cells were treated with 1 μM oligomycin, 2 μM carbonyl cyanide p-trifluoromethoxyphenylhydrazone (FCCP), and 0.5 μM rotenone/antimycin (indicated by three black arrows in each seahorse trace). For mitoFlex Fuel test experiments, cells were treated with UK5099 (200 μM) and BPTES (200 μM)/Etomoxir (80 μM). A total of three OCR and pH measurements were taken after each compound was administered. All Seahorse experiments were repeated at least three times unless otherwise indicated. All OCR and ECAR data were normalized to cell number per well using CyQUANT (ThermoFisher Scientific, Waltham, Mass., USA).
Peripheral blood mononuclear cells from de-identified healthy donors (young<35 years old, aged>65 years old) were obtained from the Stanford Blood Center and transferred to 50 ml conical tubes. Samples were diluted with 20 ml PBS and layered onto 10 ml of Ficoll-Paque (GE Healthcare) using a Pasteur pipette. Tubes were centrifuged at 1,500 r.p.m. for 25 min without brake at 20° C. The mononuclear cell layer was transferred to a new 50 ml conical tube, resuspended in 50 ml 1×PBS and centrifuged at 1500 r.p.m. for 10 min, repeated twice. After centrifugation, monocytes were isolated using a Monocyte Isolation Kit, human (MACS; Miltenyi Biotech). Cells were then plated 10×10^6 per 10-cm petri dish and differentiated for 7 days in Roswell Park Memorial Institute (RPMI) media supplemented with 10% FBS, 1% penicillin-streptomycin, and 50 ng ml^−1 M-CSF (Peprotech).

COc1ccc2cc(OCC3(C(=O)O)CN(C(=O)c4ccc(F)cc4)C3)ccc2c1 [PF-04418948]
hippocampal memory function (aged mice): restored hippocampal memory function as well as LTP to youthful levels
ECAR (extracellular acidification rate, glycolysis) [1]: increased
basal OCR (oxygen consumption) [1]: increased
